TGI and GI50 data for nine compounds are collected here from PubChem BioAssay (NCI).

SMILES strings stand for the structures.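 Protocol summary: plate cells (96-well), add compound at 5 concentrations, incubate 48 h, interpolate endpoints linearly. Abbreviation: GI50, concentration required for 50% inhibition of growth. At the TGI there is no net growth.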

Some test systems named below: CAKI-1 renal; HCC-2998 colon; HCT-116 colon; IGROV1 ovarian; MDA-MB-231 breast; NCI-H226 lung; NCI/ADR-RES ovarian; OVCAR-8 ovarian; SK-OV-3 ovarian; U251 CNS.
Common to all, as to test: DTP human tumour cell line panel, 48 h

As a reminder, the TGI is the concentration at which net growth stops. Read a high TGI as lower sensitivity of the cells. Usually GI50 stands for the concentration at which growth is held to half of that of the control. With `NC1=C(Br)C(=O)c2ncccc2C1=O`, the concentration for total growth inhibition (TGI) in the experiment with CAKI-1 renal is 2.84 µM; in the experiment on HCC-2998 colon, 2.61 µM; in the experiment with HCT-116 colon, 0.807 µM; in the experiment with IGROV1 ovarian, 2.62 µM; in the experiment with MDA-MB-231 breast it was 8.8 µM; with NCI-H226 lung, 3.59 µM. Further, the TGI amounted to 6.12 µM with NCI/ADR-RES ovarian, 2.24 µM in the experiment on OVCAR-8 ovarian, 3.24 µM with SK-OV-3 ovarian and 0.671 µM in the experiment with U251 CNS. Moreover, the GI50 is 2.01 µM in the experiment with MDA-MB-231 breast and 0.987 µM in the experiment with NCI/ADR-RES ovarian.

For the compound `N=c1c2c(-c3ccccc3)c(-c3ccccc3)n(Cc3ccccc3)c2ncn1CCCO`, the GI50 is 0.692 µM in the experiment on CAKI-1 renal; 1.43 µM in the experiment with HCC-2998 colon; 0.406 µM in the experiment on HCT-116 colon; 2.08 µM with IGROV1 ovarian; 1.4 µM in the experiment with MDA-MB-231 breast; 0.817 µM with NCI-H226 lung. Also, the GI50 in the experiment with NCI/ADR-RES ovarian was 1.33 µM; with OVCAR-8 ovarian, 0.739 µM; in the experiment with SK-OV-3 ovarian, 4.18 µM; in the experiment on U251 CNS, 0.704 µM. The TGI with CAKI-1 renal stood at 6.57 µM; in the experiment with HCC-2998 colon it was 7.07 µM; with HCT-116 colon, 4.84 µM; in the experiment on IGROV1 ovarian, 28.1 µM; with MDA-MB-231 breast, 8.33 µM; in the experiment on NCI-H226 lung it was 12.9 µM. In addition, the TGI with NCI/ADR-RES ovarian is 17.6 µM; in the experiment with OVCAR-8 ovarian, 22.2 µM; with SK-OV-3 ovarian, 17.9 µM; in the experiment on U251 CNS it was 13.3 µM.

With `Cc1ccc2c(c1C)-c1c(ccc(C)c1C)C(=O)C2=O`, the TGI stood at 7.84 µM in the experiment on CAKI-1 renal; 18 µM in the experiment on HCC-2998 colon; 13.3 µM with HCT-116 colon; 4.75 µM with IGROV1 ovarian; 8.57 µM with MDA-MB-231 breast; 5.91 µM in the experiment on NCI-H226 lung. Further, the TGI was determined as 0.384 µM in the experiment on NCI/ADR-RES ovarian, 0.905 µM in the experiment with OVCAR-8 ovarian, 8.41 µM with SK-OV-3 ovarian and 12.8 µM in the experiment with U251 CNS.

In the case of `COc1ccc(C(=O)/C=C/c2c(C(F)(F)F)nc3sccn23)cc1OC`, the GI50 was 2.46 µM in the experiment with CAKI-1 renal; 5.07 µM in the experiment on HCC-2998 colon; 1.4 µM with HCT-116 colon; 3.15 µM in the experiment on IGROV1 ovarian; 5.91 µM in the experiment with MDA-MB-231 breast; 6.95 µM in the experiment with NCI-H226 lung. Moreover, the GI50 was 1.88 µM in the experiment with NCI/ADR-RES ovarian, 2.4 µM with OVCAR-8 ovarian, 3.41 µM in the experiment on SK-OV-3 ovarian and 1.87 µM in the experiment on U251 CNS. Besides, the TGI in the experiment on CAKI-1 renal was over 100 µM; in the experiment on HCC-2998 colon it was 97.5 µM; in the experiment on HCT-116 colon, 68.7 µM; in the experiment with IGROV1 ovarian it was over 100 µM; in the experiment on MDA-MB-231 breast, over 100 µM; in the experiment with NCI-H226 lung, over 100 µM. The TGI is 10.6 µM with NCI/ADR-RES ovarian, over 100 µM in the experiment on OVCAR-8 ovarian, over 100 µM in the experiment with SK-OV-3 ovarian and over 100 µM with U251 CNS.

For `C=CCNCCCN1C(=O)c2ccc3c4c(ccc(c24)C1=O)C(=O)N(CCCNCC=C)C3=O`, the GI50 in the experiment on CAKI-1 renal is 0.34 µM; in the experiment with HCC-2998 colon, 0.428 µM; in the experiment with HCT-116 colon, 0.279 µM; in the experiment with IGROV1 ovarian, 0.325 µM; in the experiment with MDA-MB-231 breast it was 0.681 µM; in the experiment with NCI-H226 lung it was 0.292 µM. In addition, the GI50 was 1.74 µM in the experiment with NCI/ADR-RES ovarian, 0.312 µM in the experiment with OVCAR-8 ovarian, 0.775 µM in the experiment with SK-OV-3 ovarian and 0.269 µM in the experiment on U251 CNS. Besides, the concentration for total growth inhibition (TGI) stood at 1.97 µM in the experiment with CAKI-1 renal; 1.54 µM with HCC-2998 colon; 3.39 µM in the experiment with HCT-116 colon; 1.2 µM in the experiment with IGROV1 ovarian; 5.91 µM with MDA-MB-231 breast; 0.987 µM with NCI-H226 lung. Moreover, the TGI is 12.6 µM in the experiment on NCI/ADR-RES ovarian, 2.11 µM with OVCAR-8 ovarian, 3.61 µM in the experiment with SK-OV-3 ovarian and 1 µM in the experiment on U251 CNS.

Consider `COc1ccc(-c2nnc(SCC(=O)Nc3ccc(/C(C)=N\O)cc3)n2-c2ccccc2)cc1OC`, for which the GI50 with CAKI-1 renal was over 100 µM; in the experiment on HCC-2998 colon, over 100 µM; with HCT-116 colon, 11.3 µM; in the experiment on IGROV1 ovarian, 3.74 µM; in the experiment on MDA-MB-231 breast it was 4.26 µM; with NCI-H226 lung it was 7.28 µM. For the same compound, the GI50 was over 100 µM in the experiment with NCI/ADR-RES ovarian, 7.36 µM in the experiment with OVCAR-8 ovarian, 2.73 µM with SK-OV-3 ovarian and 3.61 µM with U251 CNS. Further, the TGI was over 100 µM with CAKI-1 renal; over 100 µM in the experiment with HCC-2998 colon; over 100 µM in the experiment on HCT-116 colon; 29.4 µM in the experiment on IGROV1 ovarian; 23.8 µM with MDA-MB-231 breast; over 100 µM in the experiment on NCI-H226 lung. Besides, the TGI is over 100 µM in the experiment with NCI/ADR-RES ovarian, over 100 µM in the experiment on OVCAR-8 ovarian, 13.7 µM in the experiment on SK-OV-3 ovarian and 19.6 µM in the experiment with U251 CNS.

With `CC(C)(O)C1CCC(Nc2ccc3ncc(-c4cccc(C(F)(F)F)c4)n3n2)CC1` (stereo unspecified), the GI50 in the experiment with CAKI-1 renal was 1.67 µM; in the experiment on HCC-2998 colon, 3.26 µM; in the experiment with HCT-116 colon, 3.54 µM; in the experiment on IGROV1 ovarian it was 2.48 µM; in the experiment with MDA-MB-231 breast it was 1.96 µM; in the experiment with NCI-H226 lung, 2.19 µM. Moreover, the GI50 was 2.7 µM with NCI/ADR-RES ovarian, 2.97 µM in the experiment with OVCAR-8 ovarian, 2.68 µM with SK-OV-3 ovarian and 2.36 µM in the experiment with U251 CNS. Moreover, the total growth inhibition concentration (TGI) is 7.16 µM in the experiment on CAKI-1 renal; over 100 µM with HCC-2998 colon; 18.5 µM with HCT-116 colon; 11.6 µM with IGROV1 ovarian; 14 µM with MDA-MB-231 breast; 27 µM with NCI-H226 lung. The TGI in the experiment with NCI/ADR-RES ovarian is 19.5 µM; with OVCAR-8 ovarian it was 13.4 µM; with SK-OV-3 ovarian it was 9.19 µM; with U251 CNS, 11.9 µM.

In the case of `COc1ccn2c(C(C)=O)cc(C(=O)c3ccc4c(c3)Sc3ccccc3N4)c2c1`, the GI50 was 0.0527 µM with CAKI-1 renal; 0.155 µM with HCC-2998 colon; 0.0674 µM in the experiment with HCT-116 colon; 0.164 µM with IGROV1 ovarian; 0.155 µM in the experiment with MDA-MB-231 breast; 0.286 µM with NCI-H226 lung. Further, the GI50 in the experiment on NCI/ADR-RES ovarian is 0.0547 µM; with OVCAR-8 ovarian, 0.14 µM; in the experiment with SK-OV-3 ovarian it was 0.124 µM; in the experiment with U251 CNS it was 0.132 µM. The TGI is over 100 µM in the experiment on CAKI-1 renal; over 47.8 µM with HCC-2998 colon; 4.93 µM in the experiment on HCT-116 colon; over 100 µM in the experiment with IGROV1 ovarian; 10.6 µM with MDA-MB-231 breast; over 100 µM with NCI-H226 lung. The values for the TGI in the experiment with OVCAR-8 ovarian, in the experiment with SK-OV-3 ovarian and in the experiment with U251 CNS were over 100 µM, over 23.5 µM and over 100 µM, respectively.

As for `C=C1CC2(C[C@@H](c3ccccc3)O[C@@H](c3ccccc3)C2)OC1=O` (stereo partly specified), the TGI amounted to 4.53 µM in the experiment on CAKI-1 renal; 14.6 µM in the experiment with HCC-2998 colon; 3.71 µM in the experiment with HCT-116 colon; 8.26 µM with IGROV1 ovarian; 4.58 µM with MDA-MB-231 breast; 32 µM in the experiment with NCI-H226 lung. The TGI turned out to be 15.4 µM with NCI/ADR-RES ovarian, 7.48 µM with OVCAR-8 ovarian, 27.8 µM in the experiment on SK-OV-3 ovarian and 28.9 µM with U251 CNS.
